SMILES strings stand for the structures.

The assay addresses T1, tyrosinase from mushroom.
T1 construct: gene PPO3; commercial native mushroom enzyme (Fischer Scientific)
In words: tyrosinase inhibition assay. Type of assay: biochemical. The following applies: positive control; anomer of arbutin not stated. An excerpt: tyrosinase inhibition assay on tyrosinase from mushroom

`OC[C@H]1O[C@@H](Oc2ccc(O)cc2)[C@H](O)[C@@H](O)[C@@H]1O` [Arbutin] displayed a Tyrosinase of 0.17 ± 0.01 mg/mL.

Source of the values: article PMC10574883, “Harnessing the Bioactive Potential of Limonium spathulatum (Desf.) Kuntze: Insights into Enzyme Inhibition and Phytochemical Profile” (Plants, 2023).
